{
  "source": "patent US20240197738A1",
  "about": "“COMPOUND 7AI IN TREATING EWING SARCOMA BY INHIBITING OTUD7A” (The University of North Carolina at Chapel Hill, priority 2021, published 2024)",
  "assay_type_in_all_cases": "cell-based, human",
  "key": {"A673^3A cells": {"test_system": "A673^3A cells", "assay": "Cell viability (MTT) assay, A673^3A knockin", "conditions": "3-day treatment (FIG. 5I)", "experimental": "Parental A673 cells were splitted into 24-well plates and transfected with sgRNA against EWS-FLI1 together with EWS-FLI1-3A-ssoDNA following protocols as described. 1-day post-transfection, cells were selected with 1 μg/ml puromycin for 3 days. Surviving cells were counted and each single cell was seeded into 96-well plates. Each single clone grown up in 96-well plates was amplified and one copy was used for genomic DNA extraction, followed by PCR and BpmI digestion to screen for potential knockin clones. BpmI negative clones are selected and sequenced to verify the knockin at the DNA level. 3 isogenic knockin clones were selected and saved.\n2,000 indicated cells were seeded in each well of 96-well plates for MTT assays to monitor cell viability at indicated time periods using a method adapted from https://www.thermofisher.com/us/en/home/references/protocols/cell-culture/mtt-assay-protocol/vybrant-mtt-cell-proliferation-assay-kit.html. Briefly, at indicated time points post-cell seeding, 10 μL MTT solution was added into each well and incubated in the culture incubator (37° C. with 5% CO2) for 4 hrs. Then medium was removed and 100 μL DMSO was added into each well to dissolve the formazan crystal and incubated for 10 min at 37° C. After thorough mixing, absorbance at 540 nm was measured using the BioTek Cytation 5 Cell Imaging reader."}, "[1]": {"test_system": "EWS-FLI1 target genes (NKX2.2, PSPH, LOX, TGFBR2)", "assay": "RT-PCR of EWS-FLI1 downstream target genes", "experimental": "Cells were isolated by dissociation with 0.05% Trypsin, followed by media quenching. The cells were spun down at 300×rcf for 5 minutes. The media was aspirated, the pellet was suspended with 1×PBS, and then the cells were spun down again. The PBS was aspirated. RNA extraction was performed with an RNA extraction kit (BioBasic BS584). The final elution step was done with 50 μL of RNAse-free water. The […] with the NanoDrop OneC (Thermo Fisher Scientific). Three biological replicates were performed for RNA extraction. Quartile analysis was done to exclude outliers and significance was determined by one-way ANOVA tests."}, "FLI1": {"test_system": "FLI1", "assay": "Immunoblot of FLI1 proteins in normal control cells", "conditions": "HUVEC and FF cells, doses of 7Ai for 3 days", "experimental": "Cells were lysed in EBC buffer (50 mM Tris pH 7.5, 120 mM NaCl, 0.5% NP-40) or Triton X-100 buffer (50 mM Tris pH 7.5, 150 mM NaCl, 1% Triton X-100) supplemented with protease inhibitors (Complete Mini, Roche) and phosphatase inhibitors (phosphatase inhibitor cocktail set I and II, Calbiochem). The protein concentrations of whole cell lysates were measured by NanoDrop OneC using the Bio-Rad protein assay reagent as described previously. Equal amounts of whole cell lysates were resolved by SDS-PAGE and immunoblotted with indicated antibodies. For immunoprecipitations analysis, unless specified, 1000 μg lysates were incubated with the indicated antibody (1-2 μg) for 3-4 hr at 4° C. followed by 1 hr incubation with 10 μL Protein A magnetic beads (New England Biolabs). Or 1000 μg lysates containing tagged molecules were incubated with agarose beads coupled antibodies for the specific tag for 3-4 hr at 4° C. For endogenous IPs, incubation of cell lysates with antibodies was extended to overnight. The recovered immuno-complexes were washed five times with NETN buffer (20 mM Tris, pH 8.0, 100 mM NaCl, 1 mM EDTA and 0.5% NP-40) before being resolved by SDS-PAGE and immunoblotted with indicated antibodies."}},
  "data": [
    {"compound": "Cn1nccc1-c1cc(-c2ccnn2C)n2nc(C(=O)Nc3cnn(Cc4c(Cl)cccc4Cl)c3)cc2n1", "note": "[7Ai]", "values": [
      {"measurement": "proliferation (cell viability)", "setting": "A673^3A cells", "value": "not observed"},
      {"measurement": "transcription of EWS-FLI1 target genes NKX2.2 and PSPH", "setting": "[1]; A673 cells (FIGS. 5K-5L)", "value": "reduced transcription of EWS-FLI1 target genes"},
      {"measurement": "transcription of genes negatively regulated by EWS-FLI1 (LOX and TGFBR2)", "setting": "[1]; A673 cells (FIGS. 5M-5N)", "value": "increased transcription of genes negatively regulated by EWS-FLI1"},
      {"measurement": "FLI1 proteins", "setting": "FLI1", "value": "minimal effects on FLI1 proteins"}
    ]}
  ]
}
